From patent publication US20230295234A1, “ANTIMICROBIAL PEPTIDOMIMETICS” (SPEXIS AG, priority 2020, published 2023)
Like-named read-outs stand apart in the source and are kept apart here. Peptide text beside a SMILES is read from it.

Assays:
[1] = tested on: Klebsiella pneumoniae SSI3010
How it was run: (§1)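 Standardized inocula (0.5 McFarland in saline, then diluted in MHII broth to approximately 5×10^5 CFU/mL) were exposed to two-fold dilution series of each peptide in the presence of polysorbate 80 (0.002% final).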

[2] = tested on: Escherichia coli ATCC 25922
How it was run: as §1

[3] = tested on: Escherichia coli MCR-1 Af 45; settings: Mueller-Hinton broth II, 18-20 hours at 35° C.
How it was run: as §1

[4] = tested on: human red blood cells (hRBC); assay: Hemolysis of human red blood cells; format: cell-based
How it was run: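 Percent hemolysis is OD540 of peptide-treated supernatant relative to water-lysed cells. Each peptide was tested at 200 μg/mL against 20% (v/v) washed human erythrocytes. Incubation was 1 h at 37 °C, 300 rpm.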

[5] = Mueller-Hinton broth II, 18-20 hours at 35° C.

SMILES | Klebsiella pneumoniae SSI3010 MIC ([1]; SSI3010) | Escherichia coli ATCC 25922 MIC ([2]; ATCC 25922) | Escherichia coli MCR-1 Af 45 MIC [3] | Hemolysis at 0.2 g/L ([4]; red cells of human, 1 h) | Klebsiella pneumoniae SSI3010 MIC [1, 5] | Escherichia coli ATCC 25922 MIC [2, 5] | Hemolysis at 0.2 g/L ([4]; 20% hRBC, 1 h at 37° C.)
CC[C@H](C)[C@H](NC(=O)[C@@H](NC(=O)[C@@H]1C[C@@H](O)CN1C(=O)[C@@H](N)C(C)C)[C@@H](C)CC)C(=O)N[C@@H](Cc1ccc(O)cc1)C(=O)N[C@H]1CSSC[C@@H](C(=O)N[C@@H](CCN)C(=O)N[C@@H](CCCNC(=N)N)C(=O)N[C@@H](Cc2ccc(O)cc2)C(=O)O)NC(=O)[C@H](CCCCN)NC(=O)[C@@H](CCN)NC(=O)[C@H]([C@@H](C)O)NC(=O)[C@H](CCN)NC(=O)[C@H](CCCNC(=N)N)NC(=O)[C@H](CC(N)=O)NC1=O [Example 143] (HELM PEPTIDE1{V.[Hyp].I.I.Y.C.N.R.[Dab].T.[NCC[C@@H](N[*:1])C(=O)[*:2]].K.C.[Dab].R.Y}$PEPTIDE1,PEPTIDE1,6:R3-13:R3$$$V2.0) | 0.125 µg/mL | 0.0625 µg/mL | 0.03125 µg/mL | 0% | – | – | –
CC[C@H](C)[C@H](NC(=O)[C@@H]1CCCN1C(=O)[C@@H](N)C(C)C)C(=O)N[C@H](C(=O)N[C@@H](Cc1ccc(O)cc1)C(=O)N[C@H]1CSSC[C@@H](C(=O)N[C@@H](CCN)C(=O)N[C@@H](CCCNC(=N)N)C(=O)N[C@@H](Cc2ccc(O)cc2)C(=O)O)NC(=O)[C@H](CCCCN)NC(=O)[C@@H](CCN)NC(=O)[C@H]([C@@H](C)O)NC(=O)[C@H](CCN)NC(=O)[C@H](CCCNC(=N)N)NC(=O)[C@H](CC(N)=O)NC1=O)[C@@H](C)O [Example 144] (HELM PEPTIDE1{V.P.I.T.Y.C.N.R.[Dab].T.[NCC[C@@H](N[*:1])C(=O)[*:2]].K.C.[Dab].R.Y}$PEPTIDE1,PEPTIDE1,6:R3-13:R3$$$V2.0) | 0.125 µg/mL | 0.0625 µg/mL | 0.25 µg/mL | 0% | – | – | –
CC[C@H](C)[C@H](NC(=O)[C@@H]1CCCN1C(=O)[C@@H](N)C(C)C)C(=O)N[C@@H](Cc1ccccc1)C(=O)N[C@@H](Cc1ccc(O)cc1)C(=O)N[C@H]1CSSC[C@@H](C(=O)N[C@@H](CCN)C(=O)N[C@@H](CCCNC(=N)N)C(=O)N[C@@H](Cc2ccc(O)cc2)C(=O)O)NC(=O)[C@H](CCCCN)NC(=O)[C@@H](CCN)NC(=O)[C@H]([C@@H](C)O)NC(=O)[C@H](CCN)NC(=O)[C@H](CCCNC(=N)N)NC(=O)[C@H](CC(N)=O)NC1=O [Example 145] (HELM PEPTIDE1{V.P.I.F.Y.C.N.R.[Dab].T.[NCC[C@@H](N[*:1])C(=O)[*:2]].K.C.[Dab].R.Y}$PEPTIDE1,PEPTIDE1,6:R3-13:R3$$$V2.0) | 0.125 µg/mL | 0.0625 µg/mL | 0.0625 µg/mL | 0% | – | – | –
CC[C@H](C)[C@H](NC(=O)[C@@H](NC(=O)[C@@H]1CCCN1C(=O)[C@@H](O)C(C)C)[C@@H](C)CC)C(=O)N[C@@H](Cc1ccc(O)cc1)C(=O)N[C@H]1CSSC[C@@H](C(=O)N[C@@H](CCN)C(=O)N[C@@H](CCCNC(=N)N)C(=O)N[C@@H](Cc2ccc(O)cc2)C(=O)O)NC(=O)[C@H](CCCCN)NC(=O)[C@@H](CCN)NC(=O)[C@H]([C@@H](C)O)NC(=O)[C@H](CCN)NC(=O)[C@H](CCCNC(=N)N)NC(=O)[C@H](CC(N)=O)NC1=O [Example 146] (HELM PEPTIDE1{[CC(C)[C@H](O)C(=O)[*:2]].P.I.I.Y.C.N.R.[Dab].T.[NCC[C@@H](N[*:1])C(=O)[*:2]].K.C.[Dab].R.Y}$PEPTIDE1,PEPTIDE1,6:R3-13:R3$$$V2.0) | 0.5 µg/mL | 0.5 µg/mL | 0.5 µg/mL | 0% | – | – | –
CC[C@H](C)[C@H](NC(=O)[C@@H](NC(=O)[C@@H]1C[C@@H](O)CN1C(=O)[C@@H](N)C(C)C)[C@@H](C)CC)C(=O)N[C@@H](Cc1ccc(O)cc1)C(=O)N[C@@H]1C(=O)N[C@@H](CC(N)=O)C(=O)N[C@@H](CCCNC(=N)N)C(=O)N[C@@H](CCN)C(=O)N[C@@H]([C@@H](C)O)C(=O)N[C@H](CCN)C(=O)N[C@@H](CCCCN)C(=O)N[C@H](C(=O)N[C@@H](CCN)C(=O)N[C@@H](CCCNC(=N)N)C(=O)N[C@@H](Cc2ccc(O)cc2)C(=O)O)CSSC1(C)C [Example 147] (HELM PEPTIDE1{V.[Hyp].I.I.Y.[Pen].N.R.[Dab].T.[NCC[C@@H](N[*:1])C(=O)[*:2]].K.C.[Dab].R.Y}$PEPTIDE1,PEPTIDE1,6:R3-13:R3$$$V2.0) | – | – | 0.0625 µg/mL | – | 0.25 µg/mL | 0.125 µg/mL | 0%
CC[C@H](C)[C@H](NC(=O)[C@@H]1C[C@@H](O)CN1C(=O)[C@@H](N)C(C)C)C(=O)N[C@H](C(=O)N[C@@H](Cc1ccc(O)cc1)C(=O)N[C@@H]1C(=O)N[C@@H](CC(N)=O)C(=O)N[C@@H](CCCNC(=N)N)C(=O)N[C@@H](CCN)C(=O)N[C@@H]([C@@H](C)O)C(=O)N[C@H](CCN)C(=O)N[C@@H](CCCCN)C(=O)N[C@H](C(=O)N[C@@H](CCN)C(=O)N[C@@H](CCCNC(=N)N)C(=O)N[C@@H](Cc2ccc(O)cc2)C(=O)O)CSSC1(C)C)[C@@H](C)O [Example 148] (HELM PEPTIDE1{V.[Hyp].I.T.Y.[Pen].N.R.[Dab].T.[NCC[C@@H](N[*:1])C(=O)[*:2]].K.C.[Dab].R.Y}$PEPTIDE1,PEPTIDE1,6:R3-13:R3$$$V2.0) | 0.25 µg/mL | ≤0.125 µg/mL | 0.125 µg/mL | 0% | – | – | –
CC[C@H](C)[C@H](NC(=O)[C@@H]1C[C@@H](O)CN1C(=O)[C@@H](N)C(C)C)C(=O)N[C@H](C(=O)N[C@@H](Cc1ccc(O)cc1)C(=O)N[C@@H]1C(=O)N[C@@H](CC(N)=O)C(=O)N[C@@H](CCCNC(=N)N)C(=O)N[C@@H](CCN)C(=O)N[C@@H]([C@@H](C)O)C(=O)N[C@H](CN)C(=O)N[C@@H](CCCCN)C(=O)N[C@H](C(=O)N[C@@H](CCN)C(=O)N[C@@H](CCCNC(=N)N)C(=O)N[C@@H](Cc2ccc(O)cc2)C(=O)O)CSSC1(C)C)[C@@H](C)O [Example 149] (HELM PEPTIDE1{V.[Hyp].I.T.Y.[Pen].N.R.[Dab].T.[NC[C@@H](N[*:1])C(=O)[*:2]].K.C.[Dab].R.Y}$PEPTIDE1,PEPTIDE1,6:R3-13:R3$$$V2.0) | 0.5 µg/mL | 0.25 µg/mL | 0.25 µg/mL | 0% | – | – | –
CC[C@H](C)[C@H](NC(=O)[C@@H]1C[C@@H](O)CN1C(=O)[C@@H](N)C(C)C)C(=O)N[C@H](C(=O)N[C@@H](Cc1ccc(O)cc1)C(=O)N[C@@H]1C(=O)N[C@@H](CC(N)=O)C(=O)N[C@@H](CCCNC(=N)N)C(=O)N[C@@H](CCN)C(=O)N[C@@H]([C@@H](C)O)C(=O)N[C@H](CCCN)C(=O)N[C@@H](CCCCN)C(=O)N[C@H](C(=O)N[C@@H](CCN)C(=O)N[C@@H](CCCNC(=N)N)C(=O)N[C@@H](Cc2ccc(O)cc2)C(=O)O)CSSC1(C)C)[C@@H](C)O [Example 150] (HELM PEPTIDE1{V.[Hyp].I.T.Y.[Pen].N.R.[Dab].T.[NCCC[C@@H](N[*:1])C(=O)[*:2]].K.C.[Dab].R.Y}$PEPTIDE1,PEPTIDE1,6:R3-13:R3$$$V2.0) | 0.5 µg/mL | 0.25 µg/mL | 0.125 µg/mL | 0% | – | – | –
CC[C@H](C)[C@H](NC(=O)[C@@H]1C[C@@H](O)CN1C(=O)[C@@H](N)C(C)C)C(=O)N[C@H](C(=O)N[C@@H](Cc1ccc(O)cc1)C(=O)N[C@@H]1C(=O)N[C@@H](CC(N)=O)C(=O)N[C@@H](CCCNC(=N)N)C(=O)N[C@@H](CCN)C(=O)N[C@@H]([C@@H](C)O)C(=O)N[C@H](CCCCN)C(=O)N[C@@H](CCCCN)C(=O)N[C@H](C(=O)N[C@@H](CCN)C(=O)N[C@@H](CCCNC(=N)N)C(=O)N[C@@H](Cc2ccc(O)cc2)C(=O)O)CSSC1(C)C)[C@@H](C)O [Example 151] (HELM PEPTIDE1{V.[Hyp].I.T.Y.[Pen].N.R.[Dab].T.[dK].K.C.[Dab].R.Y}$PEPTIDE1,PEPTIDE1,6:R3-13:R3$$$V2.0) | 0.5 µg/mL | 0.25 µg/mL | 0.25 µg/mL | 0% | – | – | –
CC[C@H](C)[C@H](NC(=O)[C@@H]1C[C@@H](O)CN1C(=O)[C@@H](N)C(C)C)C(=O)N[C@H](C(=O)N[C@@H](Cc1ccc(O)cc1)C(=O)N[C@@H]1C(=O)N[C@@H](CC(N)=O)C(=O)N[C@@H](CCCNC(=N)N)C(=O)N[C@@H](CCN)C(=O)N[C@@H]([C@@H](C)O)C(=O)N[C@H](CCCNC(=N)N)C(=O)N[C@@H](CCCCN)C(=O)N[C@H](C(=O)N[C@@H](CCN)C(=O)N[C@@H](CCCNC(=N)N)C(=O)N[C@@H](Cc2ccc(O)cc2)C(=O)O)CSSC1(C)C)[C@@H](C)O [Example 152] (HELM PEPTIDE1{V.[Hyp].I.T.Y.[Pen].N.R.[Dab].T.[dR].K.C.[Dab].R.Y}$PEPTIDE1,PEPTIDE1,6:R3-13:R3$$$V2.0) | 0.25 µg/mL | 0.25 µg/mL | 0.25 µg/mL | 0% | – | – | –
CC[C@H](C)[C@H](NC(=O)[C@@H]1C[C@@H](O)CN1C(=O)[C@@H](N)C(C)C)C(=O)N[C@@H](CCN)C(=O)N[C@@H](Cc1ccc(O)cc1)C(=O)N[C@@H]1C(=O)N[C@@H](CC(N)=O)C(=O)N[C@@H](CCCNC(=N)N)C(=O)N[C@@H](CCN)C(=O)N[C@@H]([C@@H](C)O)C(=O)N[C@H](CCN)C(=O)N[C@@H](CCCCN)C(=O)N[C@H](C(=O)N[C@@H](CCN)C(=O)N[C@H](C(=O)N[C@@H](Cc2ccc(O)cc2)C(=O)O)[C@@H](C)O)CSSC1(C)C [Example 153] (HELM PEPTIDE1{V.[Hyp].I.[Dab].Y.[Pen].N.R.[Dab].T.[NCC[C@@H](N[*:1])C(=O)[*:2]].K.C.[Dab].T.Y}$PEPTIDE1,PEPTIDE1,6:R3-13:R3$$$V2.0) | 0.5 µg/mL | 0.125 µg/mL | 0.5 µg/mL | 0% | – | – | –
